Data reported in US20200022967A1, “Use of 2-carboxamide cycloamino urea derivatives in the treatment of EGFR dependent diseases or diseases that have acquired resistance to agents that target EGFR family members” (Novartis AG, priority 2010, published 2020).

Legend:
[1] = Body weight in BT474 combination study (Example 3); type: in vivo, mice; details: Compound A 50 mg/kg p.o. daily, single agent; significant
Method: (§1) Tumor volumes were measured with calipers and determined according to the formula: length×diameter^2×π/6. […] Regressions (%) were calculated according to the formula ((mean tumor volume at end of treatment-mean tumor volume at start of treatment)/mean tumor volume at start of treatment)×100. Body weights and tumor volumes were recorded twice a week.
Where applicable, data is presented as mean±SEM. For all tests, the level of significance was set at p<0.05. For tumor volumes, comparisons between treatment groups and vehicle control group were done using one-way ANOVA followed by Dunnett's test. The level of significance of body weight change within a group between the start and the end of the treatment period was determined using a paired t-test. Comparisons of delta body weights between treatment and vehicle control groups were performed by a one-way ANOVA followed by a post hoc Dunnett's test.

NCI-N87 tumors [2] = assay: NCI-N87 subcutaneous gastric cancer xenograft, antitumor activity (Example 2); type: in vivo, mice; details: 50 mg/kg p.o. once daily
Method: Experiments were performed in female HsdNpa:Athymic Nude-nu mice approximately 8-12 weeks of age at treatment start. All animals were housed under Optimized Hygienic conditions in Makrolon type III cages (max. 10 animals per cage) with free access to food and water.
NCI-N87 cells (obtained from the American Type Culture Collection), which are of gastric origin and ErbB2 amplified, were grown in DMEM culture medium containing 4.5 g/l glucose supplemented with 10% heat-inactivated FCS, 2 mM L-glutamine, and 1 mM sodium pyruvate. The cells were incubated at 37° C. in a 5% CO2 humidified atmosphere. Cells were harvested with trypsin (0.25% w/v)-EDTA (0.53 mM), re-suspended in culture medium (with additives) and counted with a Casy® system. Cell culture reagents were purchased from BioConcept (Allschwil, Switzerland).
NCI-N87 tumors were established from fragments of approximately 40 mg implanted subcutaneously into the female HsdNpa:Athymic Nude-nu mice with a trocar needle. Treatment started when the tumors reached a size of approximately 110 mm^3, 25 days post implantation.
The Compound was fully dissolved in NMP. Then, PEG300 and liquified Solutol were added (in sequence with vortexing after addition of each reagent). Water was added immediately prior to administration to the animals.
as §1
Where applicable, data is presented as mean±SEM. For all tests, the level of significance was set at p<0.05. For tumor volumes, comparisons between treatment groups and vehicle control group were done using one-way ANOVA followed by Dunnett's test. The level of significance of body weight change within a group between the start and the end of the treatment period was determined using a paired t-test. […]

NCI-N87 tumors [3] = assay: NCI-N87 xenograft in CB17 SCID mice, Compound A alone and with lapatinib (Example 6); type: in vivo; details: for Median TTE: control 26.2
Method: The NCI-N87 cells were harvested with 5× trypsin. Eight days after tumor implantation (on Day 1 of the study), mice with an individual tumor volume of 88-196 mm^3 were sorted into 10 groups of ten mice with a group mean tumor volume of 143-149 mm^3.
Where applicable, data is presented as mean±SEM. Each animal was euthanized when its neoplasm reached the endpoint volume (1000 mm^3), or on the last day of the study (Day 59). Time to endpoint (TTE) is calculated by the equation: TTE=(log10(endpoint volume)−b)/m, where TTE is expressed in days, endpoint volume is in mm3, b is the intercept and m is the slope of the line obtained by linear regression of a log-transformed tumor growth data set. Treatment efficacy was determined from Tumor Growth Delay (TGD), which was defined as the increase in the median time to endpoint (TTE) for a treatment group compared to the control group (TGD=T−C), expressed in days, or as a percentage of the median TTE of the control group (% TGD=((T−C)/C)×100), wherein T=median TTE for a treatment group and C=median TTE for the designated control group.
Statistical and graphical analyses was performed with Prism 3.03 (GraphPad) for Windows. For all tests, the level of significance of differences was done using ANOVA, with Bartlett's test; and a post-hoc Dunnett's multiple comparison test compared the mean change for each drub-treated group to the mean for Group 1. Survival was analyzed by the Kaplan-Meier method. The logrank test was employed to analyze the significance of the difference between the overall survival experiences of two groups, based on time to endpoint (TTE) values. The two-tailed statistical analyses were conducted at P=0.05. Prism summarizes test results as not significant (ns) at P>0.05, significant (symbolized by “*”) at 0.01<P<0.05, very significant (symbolized by “**”) at 0.001<P<0.01, and extremely significant (symbolized by “***”) at P<0.001.

[4] = Body weight nadir and deaths in NCI-N87 lapatinib study (Example 6)
Method: Treatments started eight days post tumor cell implantation and lasted for 59 consecutive days or until tumor volume=1000 mm^3. […] For the b.i.d. dosing schedule, the first dose was given p.m. on Day 1 and last dose a.m. on Day 22. […] Body weights were recorded on Days 1-5, on each treatment day (except weekends), and twice weekly thereafter until end of the study.

[5] = Group 2 (9 animals): Compound A 12.5 mg/kg p.o. once daily
[6] = Group 2: Compound A 12.5 mg/kg p.o. once daily
[7] = Group 3 (9 animals): Compound A 25 mg/kg p.o. once daily
[8] = Group 3: Compound A 25 mg/kg p.o. once daily

SMILES: Cc1nc(NC(=O)N2CCC[C@H]2C(N)=O)sc1-c1ccnc(C(C)(C)C(F)(F)F)c1 [Compound A, (S)-Pyrrolidine-1,2-dicarboxylic acid 2-amide 1-({4-methyl-5-[2-(2,2,2-trifluoro-1,1-dimethyl-ethyl)-pyridin-4-yl]-thiazol-2-yl}-amide)]
- body weight loss [1]: about 12%
- regression (NCI-N87 tumors [2]): 11%
- antitumor effect as compared to vehicle (NCI-N87 tumors [2]; p<0.05 ANOVA): statistically significant antitumor effect
- mean change of tumor volume (NCI-N87 tumors [2]; vehicle 694.0±93.5): −11.8±17.2 mm^3
- Regressions CR (NCI-N87 tumors [3]; [5]): CR: 0
- Regressions PR (NCI-N87 tumors [3]; [5]): PR: 0,
- Median TTE (NCI-N87 tumors [3]; Group 2 (9 animals): Compound A 12.5 mg/kg p.o. once daily, vs G1 ns): 30.4 days
- % TGD (NCI-N87 tumors [3]; [6]): 16%
- T-C (NCI-N87 tumors [3]; [6]): 4.2 days
- Regressions CR (NCI-N87 tumors [3]; [7]): CR: 0
- Regressions PR (NCI-N87 tumors [3]; [7]): PR: 0,
- Median TTE (NCI-N87 tumors [3]; Group 3 (9 animals): Compound A 25 mg/kg p.o. once daily, vs G1 *): 43.5 days
- % TGD (NCI-N87 tumors [3]; [8]): 16%
- T-C (NCI-N87 tumors [3]; [8]): 17.3 days
- Deaths NTR = non-treatment related [4, 6]: NTR: 1
- Deaths TR = treatment-related [4, 6]: TR: 1
- Deaths NTR = non-treatment related [4, 8]: NTR: 1
- Deaths TR = treatment-related [4, 8]: TR: 1
- Mean BW Nadir (lowest group mean BW) ([4]; Group 3: Compound A 25 mg/kg p.o. once daily, Day 14): −8.4%
